# According to patent publication US20020052296A1, “Herbicidal synergistic combination of a dihydrobenzothiophene compound and a photosystem II inhibitor” (Intellectual Property Department, BASF Aktiengesellschaft, priority 2000, published 2002):
# Key:
# Conditions in all cases: 18 days after treatment
# PANDI (Fall panicum) = experiment: Greenhouse postemergence herbicidal evaluation, % weed control; type: in vivo, Panicum dichotomiflorum
# Procedure: (§1) In the following examples, synergism for two-way combinations is determined by the Colby1 method, i.e. the expected (or predicted) response of the combination is calculated by taking the product of the observed response for each individual component of the combination when applied alone divided by 100 and subtracting this value from the sum of the observed response for each component when applied alone. Synergism of the combination is then determined by comparing the observed response of the combination to the expected (or predicted) response as calculated from the observed responses of each individual component alone. If the observed response of the combination is greater than the expected (or predicted) response then the combination is said to be synergistic and falls within the definition of synergistic effect as previously defined.
# (§2) In this evaluation, seedlings of the plant species listed below are grown in Metromix® soil in jiffy flats for about two weeks, to the 2-3 leaf growth stage. The test compounds are dispersed in water containing 1.0% Sunit II, a methylated seed oil of Agsco, Inc., and applied to the plants through a spray nozzle operating at 40 psi for a predetermined time so as to obtain a range of application rates of about 3.0 g/ha to 250 g/ha. Each treatment is replicated 3 times. After spraying, the plants are placed on greenhouse benches and are cared for in accordance with conventional greenhouse procedures. Eighteen days after treatment, the seedling plants are examined and the % weed control as compared to the untreated check is recorded.
# (§3) For replicated treatments, the data are averaged. The Colby method of analysis is used to determine the resultant biological effect of the combination treatment as compared to the biological effect of each component when applied alone. In Tables I and II, obs designates observed and exp designates expected.
# DIGSA (Crabgrass, large) = experiment: as above; type: in vivo, Digitaria sanguinalis
# Procedure: as §1, §2, §3
# ERBVI (Cupgrass, woolly) = experiment: as above; type: in vivo, Eriochloa villosa
# Procedure: as §1, §2, §3
# [1] = tested on: BRAPP (Signalgrass, broadleaf); experiment: as above; type: in vivo, Brachiaria platyphylla
# Procedure: as §1, §2, §3
# ECHCG (Barnyardgrass) = experiment: as above; type: in vivo, Echinochloa crus-galli
# Procedure: as §1, §2, §3
# SORHA (Johnsongrass) = experiment: as above; type: in vivo, Sorghum halepense
# Procedure: as §1, §2, §3
# SORBI (Shattercane) = experiment: as above; type: in vivo, Sorghum bicolor
# Procedure: as §1, §2, §3
# AGRRE (Quackgrass) = experiment: as above; type: in vivo, Elytrigia repens
# Procedure: as §1, §2, §3
# [2] = tested on: PANMI (Millet, wild proso); experiment: as above; type: in vivo, Panicum miliaceum
# Procedure: as §1, §2, §3
# SETVI (Foxtail, green) = experiment: as above; type: in vivo, Setaria viridis
# Procedure: as §1, §2, §3
# SETFA (Foxtail, giant) = experiment: as above; type: in vivo, Setaria faberi
# Procedure: as §1, §2, §3
# CASOB (Sicklepod) = experiment: as above; type: in vivo, Senna obtusifolia
# Procedure: as §1, §2, §3
# ZEAMX (Corn) = experiment: Greenhouse postemergence herbicidal evaluation, crop response; type: in vivo, Zea mays
# Procedure: as §1, §2, §3
compound,measurement,setting,value
"CCCS(=O)(=O)Oc1c(C(=O)c2ccc3c(c2C)C(C)(C)CS3(=O)=O)cnn1C [DHBT IA, 1-propanesulfonic acid ester of 2,3-dihydro-3,3,4-trimethylbenzo [b]thien-5-yl 5-hydroxy-1-methylpyrazol-4-yl ketone S,S-dioxide]",% WEED CONTROL PANDI Obs,PANDI (Fall panicum); 3.00 g/ha alone,40%
same,% WEED CONTROL PANDI Obs,PANDI (Fall panicum); 6.00 g/ha alone,55%
same,% WEED CONTROL PANDI Obs,PANDI (Fall panicum); 12.0 g/ha alone,75%
same,% WEED CONTROL DIGSA Obs,"DIGSA (Crabgrass, large); 3.00 g/ha alone",50%
same,% WEED CONTROL DIGSA Obs,"DIGSA (Crabgrass, large); 6.00 g/ha alone",70%
same,% WEED CONTROL DIGSA Obs,"DIGSA (Crabgrass, large); 12.0 g/ha alone",85%
same,% WEED CONTROL ERBVI Obs,"ERBVI (Cupgrass, woolly); 3.00 g/ha alone",0%
same,% WEED CONTROL ERBVI Obs,"ERBVI (Cupgrass, woolly); 6.00 g/ha alone",15%
same,% WEED CONTROL ERBVI Obs,"ERBVI (Cupgrass, woolly); 12.0 g/ha alone",40%
same,% WEED CONTROL BRAPP Obs,[1]; 3.00 g/ha alone,25%
same,% WEED CONTROL BRAPP Obs,[1]; 6.00 g/ha alone,55%
same,% WEED CONTROL BRAPP Obs,[1]; 12.0 g/ha alone,100%
same,% WEED CONTROL ECHCG Obs,ECHCG (Barnyardgrass); 3.00 g/ha alone,45%
same,% WEED CONTROL ECHCG Obs,ECHCG (Barnyardgrass); 6.00 g/ha alone,60%
same,% WEED CONTROL ECHCG Obs,ECHCG (Barnyardgrass); 12.0 g/ha alone,80%
same,% WEED CONTROL SORHA Obs,SORHA (Johnsongrass); 3.00 g/ha alone,35%
same,% WEED CONTROL SORHA Obs,SORHA (Johnsongrass); 6.00 g/ha alone,40%
same,% WEED CONTROL SORHA Obs,SORHA (Johnsongrass); 12.0 g/ha alone,65%
same,% WEED CONTROL SORBI Obs,SORBI (Shattercane); 3.00 g/ha alone,30%
same,% WEED CONTROL SORBI Obs,SORBI (Shattercane); 6.00 g/ha alone,35%
same,% WEED CONTROL SORBI Obs,SORBI (Shattercane); 12.0 g/ha alone,60%
same,% WEED CONTROL AGRRE Obs,AGRRE (Quackgrass); 3.00 g/ha alone,20%
same,% WEED CONTROL AGRRE Obs,AGRRE (Quackgrass); 6.00 g/ha alone,30%
same,% WEED CONTROL AGRRE Obs,AGRRE (Quackgrass); 12.0 g/ha alone,35%
same,% WEED CONTROL PANMI Obs,[2]; 3.00 g/ha alone,40%
same,% WEED CONTROL PANMI Obs,[2]; 6.00 g/ha alone,70%
same,% WEED CONTROL PANMI Obs,[2]; 12.0 g/ha alone,95%
same,% WEED CONTROL SETVI Obs,"SETVI (Foxtail, green); 3.00 g/ha alone",35%
same,% WEED CONTROL SETVI Obs,"SETVI (Foxtail, green); 6.00 g/ha alone",100%
same,% WEED CONTROL SETVI Obs,"SETVI (Foxtail, green); 12.0 g/ha alone",80%
same,% WEED CONTROL SETFA Obs,"SETFA (Foxtail, giant); 3.00 g/ha alone",35%
same,% WEED CONTROL SETFA Obs,"SETFA (Foxtail, giant); 6.00 g/ha alone",55%
same,% WEED CONTROL SETFA Obs,"SETFA (Foxtail, giant); 12.0 g/ha alone",90%
same,% WEED CONTROL CASOB Obs,CASOB (Sicklepod); 3.00 g/ha alone,15%
same,% WEED CONTROL CASOB Obs,CASOB (Sicklepod); 6.00 g/ha alone,25%
same,% WEED CONTROL CASOB Obs,CASOB (Sicklepod); 12.0 g/ha alone,25%
same,"% crop injury, corn (observed)",ZEAMX (Corn); 3.00 g/ha alone,0%
same,"% crop injury, corn (observed)",ZEAMX (Corn); 6.00 g/ha alone,0%
same,"% crop injury, corn (observed)",ZEAMX (Corn); 12.0 g/ha alone,0%
Atrazine [reference compound],% WEED CONTROL PANDI Obs,PANDI (Fall panicum); 250 g/ha alone,5%
same,% WEED CONTROL DIGSA Obs,"DIGSA (Crabgrass, large); 250 g/ha alone",15%
same,% WEED CONTROL ERBVI Obs,"ERBVI (Cupgrass, woolly); 250 g/ha alone",10%
same,% WEED CONTROL BRAPP Obs,[1]; 250 g/ha alone,20%
same,% WEED CONTROL ECHCG Obs,ECHCG (Barnyardgrass); 250 g/ha alone,85%
same,% WEED CONTROL SORHA Obs,SORHA (Johnsongrass); 250 g/ha alone,0%
same,% WEED CONTROL SORBI Obs,SORBI (Shattercane); 250 g/ha alone,0%
same,% WEED CONTROL AGRRE Obs,AGRRE (Quackgrass); 250 g/ha alone,45%
same,% WEED CONTROL PANMI Obs,[2]; 250 g/ha alone,60%
same,% WEED CONTROL SETVI Obs,"SETVI (Foxtail, green); 250 g/ha alone",90%
same,% WEED CONTROL SETFA Obs,"SETFA (Foxtail, giant); 250 g/ha alone",85%
same,% WEED CONTROL CASOB Obs,CASOB (Sicklepod); 250 g/ha alone,40%
same,"% crop injury, corn (observed)",ZEAMX (Corn); 250 g/ha alone,0%
